According to ChEMBL document CHEMBL3390844, “Development of substituted 7-phenyl-4-aminobenzothieno[3,2-d] pyrimidines as potent LIMK1 inhibitors” (Medchemcomm, 2011):
Converted amounts (≈) assume the structure as drawn.

How the values were obtained:
[1] = biological target: T1, LIM domain kinase 1 (Homo sapiens, UniProt P53667); test: Inhibition of LIMK1 (unknown origin) assessed as remaining ATP level using cofilin-2 protein as substrate measured after 60 mins incubation with enzyme by KinaseGlo assay
[2] = biological target: T1, LIM domain kinase 1; test: Inhibition of LIMK1 (unknown origin) assessed as ADP formation using cofilin-2 protein as substrate measured after 60 mins incubation with enzyme by Transcreener assay
[3] = In vitro intrinsic clearance in mouse liver microsomes at 1 uM by LC-MS analysis; format: ADME; conditions: read-out: CLH
[4] = Solubility of the compound in phosphate buffer at pH 6.5 by nephelometry; format: physicochemical
[5] = biological target: LIM domain kinase 2 (Homo sapiens, UniProt P53671); test: Inhibition of LIMK2 (unknown origin)
[6] = biological target: T1, LIM domain kinase 1; test: Inhibition of LIMK1-catalyzed cofilin phosphorylation in human ZR-75-1 cells; format: cell-based
[7] = Solubility of the compound in 0.01 M HCl at pH 2 by nephelometry; format: physicochemical
[8] = Partition coefficient, log D of the compound at pH 7.4 by HPLC analysis; format: physicochemical; conditions: octanol/water
[9] = In vitro intrinsic clearance in human liver microsomes at 1 uM by LC-MS analysis; format: ADME; conditions: read-out: CLH
[10] = Plasma protein binding in human by LC-MS analysis; format: ADME, cell-free; conditions: read-out: PPB (converted)

LIM domain kinase 2, sequence (P53671 whole entry, the tested form may be a part): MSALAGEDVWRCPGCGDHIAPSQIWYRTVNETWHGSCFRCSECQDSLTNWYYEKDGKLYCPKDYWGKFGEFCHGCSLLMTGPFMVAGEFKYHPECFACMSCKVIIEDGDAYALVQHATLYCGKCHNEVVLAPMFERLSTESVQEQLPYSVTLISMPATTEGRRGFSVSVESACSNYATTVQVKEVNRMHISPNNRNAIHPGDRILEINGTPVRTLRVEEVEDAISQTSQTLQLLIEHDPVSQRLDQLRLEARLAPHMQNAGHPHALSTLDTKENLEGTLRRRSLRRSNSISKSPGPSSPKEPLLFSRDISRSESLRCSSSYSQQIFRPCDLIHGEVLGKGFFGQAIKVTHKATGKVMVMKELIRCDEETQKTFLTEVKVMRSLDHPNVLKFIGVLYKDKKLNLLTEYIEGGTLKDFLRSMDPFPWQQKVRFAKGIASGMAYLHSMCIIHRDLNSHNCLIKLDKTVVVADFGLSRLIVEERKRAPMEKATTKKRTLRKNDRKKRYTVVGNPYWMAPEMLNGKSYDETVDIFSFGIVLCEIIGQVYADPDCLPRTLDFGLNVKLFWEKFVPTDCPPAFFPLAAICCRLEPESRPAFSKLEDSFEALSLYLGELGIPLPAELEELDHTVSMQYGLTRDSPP
T1 sequence (P53667 whole entry, the tested form may be a part): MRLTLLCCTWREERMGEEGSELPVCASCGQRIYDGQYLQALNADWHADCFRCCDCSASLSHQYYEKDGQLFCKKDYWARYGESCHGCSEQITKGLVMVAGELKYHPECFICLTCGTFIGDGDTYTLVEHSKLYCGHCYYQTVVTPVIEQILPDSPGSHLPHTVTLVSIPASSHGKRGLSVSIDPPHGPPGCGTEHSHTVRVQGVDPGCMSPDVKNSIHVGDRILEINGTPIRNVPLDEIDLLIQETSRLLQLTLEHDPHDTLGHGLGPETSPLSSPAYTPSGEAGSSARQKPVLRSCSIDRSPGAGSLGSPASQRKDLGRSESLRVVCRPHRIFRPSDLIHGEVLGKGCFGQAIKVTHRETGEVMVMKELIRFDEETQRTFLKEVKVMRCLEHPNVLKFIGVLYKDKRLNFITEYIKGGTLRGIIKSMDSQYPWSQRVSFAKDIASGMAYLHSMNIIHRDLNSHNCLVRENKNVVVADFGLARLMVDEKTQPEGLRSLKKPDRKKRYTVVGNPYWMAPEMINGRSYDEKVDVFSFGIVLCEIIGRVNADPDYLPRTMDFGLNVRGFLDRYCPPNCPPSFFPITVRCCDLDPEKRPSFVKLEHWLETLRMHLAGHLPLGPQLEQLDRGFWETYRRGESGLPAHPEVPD

Compound	IC50 [1]	IC50 [2]	also measured
Nc1ncnc2c1sc1cc(-c3ccc(CO)cc3)ccc12	163 nM		
Nc1ncnc2c1sc1cc(-c3ccccc3O)ccc12	260 nM		
CC(=O)c1ccc(-c2ccc3c(c2)sc2c(N)ncnc23)cc1	172 nM		
Cn1c2cc(-c3ccc(O)cc3)ccc2c2ncnc(N)c21		571 nM	
CS(=O)(=O)c1ccc(-c2ccc3c(c2)sc2c(N)ncnc23)cc1	376 nM		
N#Cc1ccc(-c2ccc3c(c2)sc2c(N)ncnc23)cc1	828 nM		
COc1cccc(-c2ccc3c(c2)sc2c(N)ncnc23)c1	149 nM		
Cn1c2cc(-c3cccc(C(N)=O)c3)ccc2c2ncnc(N)c21		379 nM	
CCNC(=O)Nc1cccc(-c2ccc3c(c2)sc2c(N)ncnc23)c1		87 nM	microsomal CLint at 1 µM [3]: 68 µL/min/mg; solubility kinetic [4]: 1.6 µg/mL (≈ 4.4 µM); IC50 [5]: 164 nM; IC50 [6]: > 30000 nM; solubility kinetic [7]: 12.5 µg/mL (≈ 34.4 µM); logD [8]: 2.4; microsomal CLint at 1 µM [9]: 24 µL/min/mg
Nc1ncnc2c1sc1cc(-c3cccc(Cl)c3)ccc12	199 nM		
NC(=O)Nc1cccc(-c2ccc3c(c2)sc2c(N)ncnc23)c1		145 nM	
COc1ccccc1-c1ccc2c(c1)sc1c(N)ncnc12	220 nM		
CC(C)CNC(=O)Nc1cccc(-c2ccc3c(c2)sc2c(N)ncnc23)c1		237 nM	
CC(C)NC(=O)Nc1cccc(-c2ccc3c(c2)sc2c(N)ncnc23)c1		78 nM	
Nc1ncnc2c1sc1cc(-c3cccc(-c4nn[nH]n4)c3)ccc12	50 nM		microsomal CLint at 1 µM [3]: < 6 µL/min/mg; solubility kinetic [4]: 6.3 µg/mL (≈ 18.2 µM); IC50 [5]: 90 nM; IC50 [6]: > 30000 nM; solubility kinetic [7]: 6.3 µg/mL (≈ 18.2 µM); logD [8]: 2; fraction unbound [10]: 0.012; microsomal CLint at 1 µM [9]: < 5 µL/min/mg
CS(=O)(=O)c1cccc(-c2ccc3c(c2)sc2c(N)ncnc23)c1	361 nM		
Nc1ncnc2c1sc1cc(-c3cccc(C(=O)N4CCOCC4)c3)ccc12		> 1000 nM	
Nc1ncnc2c1sc1cc(-c3cccc(C(=O)NCCO)c3)ccc12		228 nM	
Nc1ncnc2c1sc1cc(-c3cccc(O)c3)ccc12	230 nM		
CS(=O)(=O)Nc1ccc(-c2ccc3c(c2)sc2c(N)ncnc23)cc1	243 nM		
NC(=O)c1cccc(-c2ccc3c(c2)sc2c(N)ncnc23)c1	120 nM	120 nM	microsomal CLint at 1 µM [3]: 26 µL/min/mg; solubility kinetic [4]: 3.1 µg/mL (≈ 9.68 µM); IC50 [5]: 273 nM; IC50 [6]: > 30000 nM; solubility kinetic [7]: 25 µg/mL (≈ 78 µM); logD [8]: 1.9; fraction unbound [10]: 0.037; microsomal CLint at 1 µM [9]: < 5 µL/min/mg
CCNC(=O)Nc1ncc(-c2cc(-c3c(C)cc(OC)cc3C)nc(-c3cnccn3)n2)s1		54 nM	microsomal CLint at 1 µM [3]: 10 µL/min/mg; solubility kinetic [4]: 1.6 µg/mL (≈ 3.47 µM); IC50 [5]: 696 nM; solubility kinetic [7]: 1.6 µg/mL (≈ 3.47 µM); logD [8]: 3; microsomal CLint at 1 µM [9]: < 5 µL/min/mg
CN1CCN(CCNC(=O)Nc2cccc(-c3ccc4c(c3)sc3c(N)ncnc34)c2)CC1		223 nM	

Compound	IC50 [1]	IC50 [2]	also measured
Nc1ncnc2c1sc1cc(-c3cccc(CO)c3)ccc12	129 nM		
Nc1cccc(-c2ccc3c(c2)sc2c(N)ncnc23)c1	231 nM		
Nc1ncnc2c1sc1cc(-c3cccc(C(=O)O)c3)ccc12	196 nM		
Nc1ccccc1-c1ccc2c(c1)sc1c(N)ncnc12	310 nM		
Nc1ncnc2c1sc1cc(-c3ccc(-c4nn[nH]n4)cc3)ccc12	127 nM		
CS(=O)(=O)Nc1ccccc1-c1ccc2c(c1)sc1c(N)ncnc12	998 nM		
C[C@@H](NC(=O)c1cccc(-c2ccc3c(c2)sc2c(N)ncnc23)c1)C(N)=O		294 nM	
Nc1ncnc2c1sc1cc(-c3ccccc3Cl)ccc12	> 1000 nM		
Nc1ncnc2c1sc1cc(-c3ccncc3)ccc12	732 nM		
CC(=O)Nc1ccc(-c2ccc3c(c2)sc2c(N)ncnc23)cc1	181 nM		
Cn1c2cc(-c3ccccc3)ccc2c2ncnc(N)c21			microsomal CLint at 1 µM [3]: 572 µL/min/mg; solubility kinetic [4]: 3.1 µg/mL (≈ 11.3 µM); solubility kinetic [7]: 12.5 µg/mL (≈ 45.6 µM); logD [8]: 3.4; microsomal CLint at 1 µM [9]: 70 µL/min/mg
Nc1ccc(-c2ccc3c(c2)sc2c(N)ncnc23)cc1	159 nM		
Nc1ncnc2c1sc1cc(-c3ccccc3)ccc12			microsomal CLint at 1 µM [3]: 839 µL/min/mg; solubility kinetic [4]: < 1.6 µg/mL; solubility kinetic [7]: 6.3 µg/mL (≈ 22.7 µM); logD [8]: 3.65; microsomal CLint at 1 µM [9]: 114 µL/min/mg
Cn1c2cc(-c3ccc(NC=O)cc3)ccc2c2ncnc(N)c21		498 nM	
CC(=O)Nc1cccc(-c2ccc3c(c2)sc2c(N)ncnc23)c1	395 nM		
COc1ccc(-c2ccc3c(c2)sc2c(N)ncnc23)cc1	204 nM		
Nc1ncnc2c1sc1cc(-c3ccc(O)cc3)ccc12	267 nM		
CC(C)C(=O)Nc1ncc(-c2cc(C(F)F)nn2-c2c(Cl)cccc2Cl)s1			logD [8]: 3.8; fraction unbound [10]: 0.029
NC(=O)c1ccc(-c2ccc3c(c2)sc2c(N)ncnc23)cc1	156 nM		
Nc1ncnc2c1sc1cc(-c3ccc(NC=O)cc3)ccc12	44 nM		
Nc1ncnc2c1sc1cc(-c3cccnc3)ccc12	795 nM		
Nc1ncnc2c1sc1cc(-c3cccc(NC=O)c3)ccc12	55 nM	55 nM	
